Results published in paper PMC3933419, “Synthesis and Properties of a Selective Inhibitor of Homeodomain–Interacting Protein Kinase 2 (HIPK2)” (PLoS ONE, 2014).

Columns and labels:
Test in all cases: Kinase panel selectivity profiling
Assay type in all cases: biochemical
SmMLCK = SmMLCK (Homo sapiens, UniProt Q15746); details: TBID 1 μM, 125 kinase panel, read-out: % activity of the enzyme
Source text: (§1) The source of HIPK2 and of all of the other protein kinases used for specificity assays is as described elsewhere.
(§2) Conditions for the activity assays of all other protein kinases tested in selectivity experiments are as described or referenced in [9].

EF2K = EF2K (Homo sapiens, UniProt O00418); details: TBID 1 μM, 125 kinase panel, read-out: % activity of the enzyme
Source text: as §1, §2

YES1 = YES1 (Homo sapiens, UniProt P07947); details: TBID 1 μM, 125 kinase panel, read-out: % activity of the enzyme
Source text: as §1, §2

p38a MAPK = p38a MAPK (Homo sapiens, UniProt Q16539); details: TBID 1 μM, 125 kinase panel, read-out: % activity of the enzyme
Source text: as §1, §2

TAO1 = TAO1 (Homo sapiens, UniProt Q7L7X3); details: TBID 1 μM, 125 kinase panel, read-out: % activity of the enzyme
Source text: as §1, §2

MSK1 = MSK1 (Homo sapiens, UniProt O75582); details: TBID 1 μM, 125 kinase panel, read-out: % activity of the enzyme
Source text: as §1, §2

IRAK4 = IRAK4 (Homo sapiens, UniProt Q9NWZ3); details: TBID 1 μM, 125 kinase panel, read-out: % activity of the enzyme
Source text: as §1, §2

ROCK 2 = ROCK 2 (Homo sapiens, UniProt O75116); details: TBID 1 μM, 125 kinase panel, read-out: % activity of the enzyme
Source text: as §1, §2

MNK2 = MNK2 (Homo sapiens, UniProt Q9HBH9); details: TBID 1 μM, 125 kinase panel, read-out: % activity of the enzyme
Source text: as §1, §2

RSK2 = RSK2 (Homo sapiens, UniProt P51812); details: TBID 1 μM, 125 kinase panel, read-out: % activity of the enzyme
Source text: as §1, §2

PIM3 = PIM3 (Homo sapiens, UniProt Q86V86); details: TBID 1 μM, 125 kinase panel, read-out: % activity of the enzyme
Source text: as §1, §2

p38g MAPK = p38g MAPK (Homo sapiens, UniProt P53778); details: TBID 1 μM, 125 kinase panel, read-out: % activity of the enzyme
Source text: as §1, §2

PIM2 = PIM2 (Homo sapiens, UniProt Q9P1W9); details: TBID 1 μM, 125 kinase panel, read-out: % activity of the enzyme
Source text: as §1, §2

Src = Src (Homo sapiens, UniProt P12931); details: TBID 1 μM, 125 kinase panel, read-out: % activity of the enzyme
Source text: as §1, §2

PKCa = PKCa (Homo sapiens, UniProt P17252); details: TBID 1 μM, 125 kinase panel, read-out: % activity of the enzyme
Source text: as §1, §2

MELK = MELK (Homo sapiens, UniProt Q14680); details: TBID 1 μM, 125 kinase panel, read-out: % activity of the enzyme
Source text: as §1, §2

MEKK1 = MEKK1 (Homo sapiens, UniProt Q13233); details: TBID 1 μM, 125 kinase panel, read-out: % activity of the enzyme
Source text: as §1, §2

FGF-R1 = FGF-R1 (Homo sapiens, UniProt P11362); details: TBID 1 μM, 125 kinase panel, read-out: % activity of the enzyme
Source text: as §1, §2

TLK1 = TLK1 (Homo sapiens, UniProt Q9UKI8); details: TBID 1 μM, 125 kinase panel, read-out: % activity of the enzyme
Source text: as §1, §2

BRK = BRK (Homo sapiens, UniProt Q13882); details: TBID 1 μM, 125 kinase panel, read-out: % activity of the enzyme
Source text: as §1, §2

Aurora B = Aurora B (Homo sapiens, UniProt Q96GD4); details: TBID 1 μM, 125 kinase panel, read-out: % activity of the enzyme
Sequence of Aurora B (Q96GD4 whole entry): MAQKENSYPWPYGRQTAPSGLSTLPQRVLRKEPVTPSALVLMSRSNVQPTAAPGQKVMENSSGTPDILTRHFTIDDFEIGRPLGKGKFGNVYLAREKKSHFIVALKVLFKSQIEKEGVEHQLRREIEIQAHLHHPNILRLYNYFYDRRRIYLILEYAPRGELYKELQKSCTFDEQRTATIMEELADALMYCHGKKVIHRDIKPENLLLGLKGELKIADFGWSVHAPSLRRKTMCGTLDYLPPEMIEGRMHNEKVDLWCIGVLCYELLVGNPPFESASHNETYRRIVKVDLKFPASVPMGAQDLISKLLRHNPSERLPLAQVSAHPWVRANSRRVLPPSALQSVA
Source text: as §1, §2

MST2 = MST2 (Homo sapiens, UniProt Q13188); details: TBID 1 μM, 125 kinase panel, read-out: % activity of the enzyme
Sequence of MST2 (Q13188 whole entry): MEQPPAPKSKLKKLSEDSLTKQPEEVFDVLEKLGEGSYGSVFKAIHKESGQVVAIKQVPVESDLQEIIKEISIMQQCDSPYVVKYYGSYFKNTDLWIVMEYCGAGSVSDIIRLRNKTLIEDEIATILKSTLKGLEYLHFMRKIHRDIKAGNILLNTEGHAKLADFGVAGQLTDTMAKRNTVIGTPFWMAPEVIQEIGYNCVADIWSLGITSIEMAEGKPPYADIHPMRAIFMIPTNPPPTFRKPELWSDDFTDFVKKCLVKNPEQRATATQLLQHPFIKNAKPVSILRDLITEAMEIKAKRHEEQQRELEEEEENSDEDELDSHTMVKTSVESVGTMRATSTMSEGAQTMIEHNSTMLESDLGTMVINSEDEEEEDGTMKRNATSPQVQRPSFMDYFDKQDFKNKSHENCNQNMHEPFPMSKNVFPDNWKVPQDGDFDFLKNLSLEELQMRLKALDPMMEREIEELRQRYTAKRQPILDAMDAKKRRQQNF
Source text: as §1, §2

DAPK1 = DAPK1 (Homo sapiens, UniProt P53355); details: TBID 1 μM, 125 kinase panel, read-out: % activity of the enzyme
Sequence of DAPK1 (P53355 whole entry): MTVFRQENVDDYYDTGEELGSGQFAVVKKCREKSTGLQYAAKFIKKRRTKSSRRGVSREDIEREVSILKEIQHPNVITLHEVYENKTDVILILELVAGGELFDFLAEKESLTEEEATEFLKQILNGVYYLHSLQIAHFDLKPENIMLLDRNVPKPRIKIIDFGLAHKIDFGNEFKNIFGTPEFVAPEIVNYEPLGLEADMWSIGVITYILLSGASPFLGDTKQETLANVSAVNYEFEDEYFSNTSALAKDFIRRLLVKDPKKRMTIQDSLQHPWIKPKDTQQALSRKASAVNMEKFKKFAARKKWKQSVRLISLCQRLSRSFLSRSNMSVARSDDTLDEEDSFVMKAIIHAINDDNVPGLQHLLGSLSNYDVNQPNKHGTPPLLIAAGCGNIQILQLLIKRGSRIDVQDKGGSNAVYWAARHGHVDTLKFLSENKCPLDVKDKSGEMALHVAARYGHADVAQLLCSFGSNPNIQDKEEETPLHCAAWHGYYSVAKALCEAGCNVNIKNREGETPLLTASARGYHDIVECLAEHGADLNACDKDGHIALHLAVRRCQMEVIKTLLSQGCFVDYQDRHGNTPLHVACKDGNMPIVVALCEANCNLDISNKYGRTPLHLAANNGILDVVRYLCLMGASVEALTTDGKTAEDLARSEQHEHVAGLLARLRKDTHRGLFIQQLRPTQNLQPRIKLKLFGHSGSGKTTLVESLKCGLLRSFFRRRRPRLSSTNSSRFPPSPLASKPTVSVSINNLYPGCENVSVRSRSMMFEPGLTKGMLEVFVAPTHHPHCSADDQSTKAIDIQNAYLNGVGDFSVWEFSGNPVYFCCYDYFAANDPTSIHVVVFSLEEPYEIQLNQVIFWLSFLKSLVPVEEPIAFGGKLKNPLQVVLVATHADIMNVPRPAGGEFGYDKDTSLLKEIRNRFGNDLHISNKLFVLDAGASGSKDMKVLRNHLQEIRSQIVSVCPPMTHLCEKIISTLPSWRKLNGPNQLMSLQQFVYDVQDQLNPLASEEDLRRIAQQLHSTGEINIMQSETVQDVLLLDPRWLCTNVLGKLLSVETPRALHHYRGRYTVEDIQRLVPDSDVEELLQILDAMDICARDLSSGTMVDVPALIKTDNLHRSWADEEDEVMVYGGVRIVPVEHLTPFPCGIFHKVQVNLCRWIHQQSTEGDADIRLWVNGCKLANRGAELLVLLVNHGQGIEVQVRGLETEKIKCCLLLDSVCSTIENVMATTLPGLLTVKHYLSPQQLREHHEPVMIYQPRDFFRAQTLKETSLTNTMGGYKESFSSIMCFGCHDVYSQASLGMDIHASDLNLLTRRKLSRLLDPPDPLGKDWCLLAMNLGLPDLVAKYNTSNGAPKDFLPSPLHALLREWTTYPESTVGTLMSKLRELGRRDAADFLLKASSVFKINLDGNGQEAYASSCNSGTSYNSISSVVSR
Source text: as §1, §2

SRPK1 = SRPK1 (Homo sapiens, UniProt Q96SB4); details: TBID 1 μM, 125 kinase panel, read-out: % activity of the enzyme
Source text: as §1, §2

PAK4 = PAK4 (Homo sapiens, UniProt O96013); details: TBID 1 μM, 125 kinase panel, read-out: % activity of the enzyme
Source text: as §1, §2

MARK4 = MARK4 (Homo sapiens, UniProt Q96L34); details: TBID 1 μM, 125 kinase panel, read-out: % activity of the enzyme
Source text: as §1, §2

PKBa = PKBa (Homo sapiens, UniProt P31749); details: TBID 1 μM, 125 kinase panel, read-out: % activity of the enzyme
Source text: as §1, §2

PIM1 = molecular target: T1, PIM1 (Homo sapiens, UniProt P11309)
T1 construct: The source of HIPK2 and of all of the other protein kinases used for specificity assays is as described elsewhere
T1 sequence (P11309 whole entry, species assumed): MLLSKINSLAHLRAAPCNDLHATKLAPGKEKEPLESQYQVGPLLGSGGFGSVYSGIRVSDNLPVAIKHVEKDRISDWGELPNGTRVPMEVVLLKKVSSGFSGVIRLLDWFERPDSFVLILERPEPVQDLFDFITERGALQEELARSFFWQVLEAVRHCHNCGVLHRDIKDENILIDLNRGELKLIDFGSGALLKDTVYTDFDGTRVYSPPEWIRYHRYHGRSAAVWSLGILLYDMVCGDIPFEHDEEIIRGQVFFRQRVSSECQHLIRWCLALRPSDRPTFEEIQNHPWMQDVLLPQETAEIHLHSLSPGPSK
Source text: as §1, §2

GCK = GCK (Homo sapiens, UniProt Q12851); details: TBID 1 μM, 125 kinase panel, read-out: % activity of the enzyme
Sequence of GCK (Q12851 whole entry): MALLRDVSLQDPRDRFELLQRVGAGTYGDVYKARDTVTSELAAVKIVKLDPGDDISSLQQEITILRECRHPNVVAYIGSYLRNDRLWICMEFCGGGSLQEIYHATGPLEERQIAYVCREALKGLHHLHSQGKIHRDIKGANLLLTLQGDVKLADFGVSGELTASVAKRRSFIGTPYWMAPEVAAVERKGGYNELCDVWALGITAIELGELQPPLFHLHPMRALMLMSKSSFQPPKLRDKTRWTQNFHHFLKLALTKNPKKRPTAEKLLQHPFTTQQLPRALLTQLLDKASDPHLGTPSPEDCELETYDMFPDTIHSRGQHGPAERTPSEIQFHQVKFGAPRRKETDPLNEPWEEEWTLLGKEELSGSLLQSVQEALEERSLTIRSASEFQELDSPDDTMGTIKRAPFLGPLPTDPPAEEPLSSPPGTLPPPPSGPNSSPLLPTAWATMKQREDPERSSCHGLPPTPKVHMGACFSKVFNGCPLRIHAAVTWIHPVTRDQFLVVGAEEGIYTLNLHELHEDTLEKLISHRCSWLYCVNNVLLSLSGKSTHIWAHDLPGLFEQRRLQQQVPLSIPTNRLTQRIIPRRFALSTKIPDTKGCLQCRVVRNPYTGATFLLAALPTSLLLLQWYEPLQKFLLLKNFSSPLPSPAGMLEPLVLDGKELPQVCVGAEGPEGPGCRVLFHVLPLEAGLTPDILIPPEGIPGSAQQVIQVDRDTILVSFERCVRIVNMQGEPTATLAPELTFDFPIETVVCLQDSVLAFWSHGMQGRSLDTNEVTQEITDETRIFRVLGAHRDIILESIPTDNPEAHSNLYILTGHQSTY
Source text: as §1, §2

TSSK1 = TSSK1 (Homo sapiens, UniProt Q9BXA7); details: TBID 1 μM, 125 kinase panel, read-out: % activity of the enzyme
Sequence of TSSK1 (Q9BXA7 whole entry): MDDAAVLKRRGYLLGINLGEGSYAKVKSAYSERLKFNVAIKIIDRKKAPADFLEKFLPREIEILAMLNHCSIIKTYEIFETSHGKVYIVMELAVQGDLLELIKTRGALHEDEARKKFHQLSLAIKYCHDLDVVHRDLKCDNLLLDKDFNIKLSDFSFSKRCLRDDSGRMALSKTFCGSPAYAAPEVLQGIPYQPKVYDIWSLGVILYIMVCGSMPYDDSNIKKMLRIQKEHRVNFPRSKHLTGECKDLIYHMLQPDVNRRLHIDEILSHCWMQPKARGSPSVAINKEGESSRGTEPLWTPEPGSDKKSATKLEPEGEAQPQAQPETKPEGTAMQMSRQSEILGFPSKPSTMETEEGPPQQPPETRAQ
Source text: as §1, §2

SYK = SYK (Homo sapiens, UniProt P43405); details: TBID 1 μM, 125 kinase panel, read-out: % activity of the enzyme
Source text: as §1, §2

TrkA = TrkA (Homo sapiens, UniProt P04629); details: TBID 1 μM, 125 kinase panel, read-out: % activity of the enzyme
Source text: as §1, §2

IRR = IRR (Homo sapiens, UniProt P14616); details: TBID 1 μM, 125 kinase panel, read-out: % activity of the enzyme
Source text: as §1, §2

IKKb = IKKb (Homo sapiens, UniProt O14920); details: TBID 1 μM, 125 kinase panel, read-out: % activity of the enzyme
Source text: as §1, §2

IRAK1 = IRAK1 (Homo sapiens, UniProt P51617); details: TBID 1 μM, 125 kinase panel, read-out: % activity of the enzyme
Source text: as §1, §2

OSR1 = OSR1 (Homo sapiens, UniProt O95747); details: TBID 1 μM, 125 kinase panel, read-out: % activity of the enzyme
Source text: as §1, §2

JAK2 = JAK2 (Homo sapiens, UniProt O60674); details: TBID 1 μM, 125 kinase panel, read-out: % activity of the enzyme
Source text: as §1, §2

MINK1 = MINK1 (Homo sapiens, UniProt Q8N4C8); details: TBID 1 μM, 125 kinase panel, read-out: % activity of the enzyme
Source text: as §1, §2

MKK2 = MKK2 (Homo sapiens, UniProt P36507); details: TBID 1 μM, 125 kinase panel, read-out: % activity of the enzyme
Sequence of MKK2 (P36507 whole entry): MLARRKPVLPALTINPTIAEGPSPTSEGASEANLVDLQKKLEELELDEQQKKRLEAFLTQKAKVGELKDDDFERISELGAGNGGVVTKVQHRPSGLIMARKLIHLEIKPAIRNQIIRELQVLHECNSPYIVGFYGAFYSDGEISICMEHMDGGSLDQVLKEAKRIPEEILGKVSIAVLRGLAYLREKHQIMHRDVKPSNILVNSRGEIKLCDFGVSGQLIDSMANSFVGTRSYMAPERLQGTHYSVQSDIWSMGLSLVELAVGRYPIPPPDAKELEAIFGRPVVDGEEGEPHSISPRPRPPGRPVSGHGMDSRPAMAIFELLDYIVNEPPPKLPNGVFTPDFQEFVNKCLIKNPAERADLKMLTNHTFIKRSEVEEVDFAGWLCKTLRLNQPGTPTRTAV
Source text: as §1, §2

CK2 = CK2 (Homo sapiens, UniProt P68400)
Sequence of CK2 (P68400 whole entry): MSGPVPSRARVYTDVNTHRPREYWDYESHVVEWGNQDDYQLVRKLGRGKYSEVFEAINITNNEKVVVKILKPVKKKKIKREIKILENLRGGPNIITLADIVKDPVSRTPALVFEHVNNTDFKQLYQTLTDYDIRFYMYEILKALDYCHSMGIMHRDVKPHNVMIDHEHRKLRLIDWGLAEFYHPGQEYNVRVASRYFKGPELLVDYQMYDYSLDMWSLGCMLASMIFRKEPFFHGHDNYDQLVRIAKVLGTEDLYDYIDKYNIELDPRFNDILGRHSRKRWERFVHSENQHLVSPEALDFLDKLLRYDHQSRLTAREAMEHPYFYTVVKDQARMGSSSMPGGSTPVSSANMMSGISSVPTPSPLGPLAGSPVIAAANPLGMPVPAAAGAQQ
Source text: as §1, §2

MST4 = MST4 (Homo sapiens, UniProt Q9P289); details: TBID 1 μM, 125 kinase panel, read-out: % activity of the enzyme
Sequence of MST4 (Q9P289 whole entry): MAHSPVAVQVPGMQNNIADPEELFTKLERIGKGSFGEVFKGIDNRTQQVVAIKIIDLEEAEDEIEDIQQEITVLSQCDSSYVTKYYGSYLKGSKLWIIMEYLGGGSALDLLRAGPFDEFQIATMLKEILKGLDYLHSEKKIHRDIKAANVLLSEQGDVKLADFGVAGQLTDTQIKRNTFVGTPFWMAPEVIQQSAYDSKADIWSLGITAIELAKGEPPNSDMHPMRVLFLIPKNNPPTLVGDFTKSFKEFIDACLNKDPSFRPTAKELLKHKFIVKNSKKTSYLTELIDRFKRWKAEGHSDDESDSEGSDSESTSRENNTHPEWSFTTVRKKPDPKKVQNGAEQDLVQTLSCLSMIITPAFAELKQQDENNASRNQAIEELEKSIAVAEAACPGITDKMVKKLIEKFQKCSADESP
Source text: as §1, §2

[1] = TBID 1 μM, 125 kinase panel, read-out: % activity of the enzyme

O=C1c2c(Br)c(Br)c(Br)c(Br)c2C(=O)N1c1ncc[nH]1 [TBID, 4,5,6,7-Tetrabromo-2-(1H-imidazol-2-yl)isoindoline-1,3-dione]
activity at 1 µM (SmMLCK): 103%
activity at 1 µM (EF2K): 111%
activity at 1 µM (YES1): 110%
activity at 1 µM (p38a MAPK): 88%
activity at 1 µM (TAO1): 110%
activity at 1 µM (MSK1): 89%
activity at 1 µM (IRAK4): 101%
activity at 1 µM (ROCK 2): 117%
activity at 1 µM (MNK2): 113%
activity at 1 µM (RSK2): 101%
activity at 1 µM (PIM3): 101%
activity at 1 µM (p38g MAPK): 101%
activity at 1 µM (PIM2): 101%
activity at 1 µM (Src): 83%
activity at 1 µM (PKCa): 102%
activity at 1 µM (MELK): 110%
activity at 1 µM (MEKK1): 106%
activity at 1 µM (FGF-R1): 104%
activity at 1 µM (TLK1): 107%
activity at 1 µM (BRK): 103%
activity at 1 µM (Aurora B): 106%
activity at 1 µM (MST2): 90%
activity at 1 µM (DAPK1): 92%
activity at 1 µM (SRPK1): 77%
activity at 1 µM (PAK4): 99%
activity at 1 µM (MARK4): 95%
activity at 1 µM (PKBa): 104%
residual activity (PIM1; 10 µM TBID, panel of 76 protein kinases): entirely unaffected
activity at 1 µM (PIM1; [1]): 104%
activity at 1 µM (GCK): 100%
activity at 1 µM (TSSK1): 109%
activity at 1 µM (SYK): 108%
activity at 1 µM (TrkA): 100%
activity at 1 µM (IRR): 100%
activity at 1 µM (IKKb): 99%
activity at 1 µM (IRAK1): 82%
activity at 1 µM (OSR1): 103%
activity at 1 µM (JAK2): 114%
activity at 1 µM (MINK1): 91%
activity at 1 µM (MKK2): 96%
remaining activity at 10 µM (CK2; 10 µM TBID, panel of 76 protein kinases, read-out: residual activity): 48%
activity at 1 µM (CK2; [1]): 87%
activity at 1 µM (MST4): 108%
